Assay results reported in patent publication US20230032020A1, “SMALL-MOLECULE COVALENT INHIBITION OF RAL GTPASES” (THE TRUSTEES OF INDIANA UNIVERSITY, priority 2019, published 2023).
Positions count from the first letter of the chain named. Where two headings read alike, the source gives them in different places.

Columns and labels:
[1] = biological target: T1, RalB Tyr82Phe mutant (Homo sapiens, UniProt P11234, Y82F); assay: Rgl2-mediated guanine nucleotide exchange assay, RalB Tyr82Phe mutant; type: biochemical
T1 construct: made in house; host or cells: E. coli BL21(DE3)
T1 sequence (P11234 12-185 Y82F): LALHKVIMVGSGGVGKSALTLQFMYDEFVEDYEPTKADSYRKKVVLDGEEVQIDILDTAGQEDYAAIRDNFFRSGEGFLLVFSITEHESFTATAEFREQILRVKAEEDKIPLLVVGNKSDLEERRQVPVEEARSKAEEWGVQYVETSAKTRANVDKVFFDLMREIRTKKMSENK
Protocol: To confirm that inhibition of RalB exchange by Rgl2 was due to covalent bond formation at Tyr-82, the nucleotide exchange study was repeated using RalB Tyr82Phe mutant. […] A concentration-dependent exchange study then was carried out to obtain the concentration of compound required for 50% inhibition of Rgl2-mediated exchange, as illustrated in FIG. 1D. This was done by incubating RalB with varying concentrations of Compound 1 for 24 hours at a temperature of 4° C., prior to the initiation of nucleotide exchange by the addition of Rgl2 and BODIPY-FL-GDP. The rate constant was calculated by fitting a 3-parameter exponential function for each measurement. To determine percent inhibition, the fitting was also done for control DMSO samples and samples without Rgl2.
(§1) Exchange Assay: 10 μL of RalB (2 μM), RalA (2 μM), and Ras (0.8 μM) in an exchange assay buffer (100 mM NaCl, 10 mM MgCl2, 20 mM Tris pH 8, 0.01% IGEPAL) were added to a 384-well, black, round bottom, low volume, polystyrene plate (Corning, Corning, N.Y., Catalog Number: 4515) and incubated with 2 μL of varying concentrations of compounds in the exchange assay buffer supplemented with 20% v/v DMSO for 24 h (unless otherwise specified) at 4° C. After the incubation, 5 μL of RGL2 (1 μM), SOS (0.4 μM) or buffer was added. Finally, 3 μL of Bodipy-FL-GDP (1.67 μM for RalA/B, 1.0 μM for Ras) was added and the fluorescence was read immediately on an Envision Multilabel Plate Reader (PerkinElmer, Waltham, Mass.) using a filter set with excitation and emission wavelengths of 485 and 535 nm, respectively, for 40 min at 30 sec intervals.
(§2) The fluorescence increase over time was fitted to an exponential function:
(§3) Fluorescence Intensity=Initial Fluorescence+Extent of binding (1−e^−Rate×Time)
(§4) The rate constant of the exchange was calculated by fitting experimental values for Fluorescence Intensity and corresponding Time. The Initial Fluorescence was estimated from the initial reading of the fluorescence intensity from the experimental control sample without guanine exchange factor (GEF). The Extent of binding is the difference between the maximal fluorescence intensity of the DMSO control sample versus the initial fluorescence recorded for the No GEF control sample.
Percent Inhibition and compound concentration are experimental values. Maximum inhibition is set at 100 percent as no plateau were achieved. Minimum inhibition value was data-dependent and were mostly found to be near 0 percent. Due to the fact that the compounds were covalent inhibitors and not classical reversible inhibitors, Hillslope value was not constrained.

[2] = biological target: T2, RalB (Homo sapiens, UniProt P11234); assay: Rgl2-mediated guanine nucleotide exchange assay (BODIPY-FL-GDP fluorescence), RalB wild-type; type: biochemical; conditions: for improvement in IC50 at 24 h compared to Compound 1: RalB WT
T2 construct: made in house; host or cells: E. coli BL21(DE3)
T2 sequence (P11234 12-185): T1 sequence (P11234 12-185 Y82F) with F71Y
Protocol: Fragment-based screening using a library of 89 sulfonyl fluoride compounds was carried out to explore this possibility. A fluorescence-based guanine nucleotide exchange assay was used to measure inhibition of Rgl2-mediated exchange of Ral-bound GDP with fluorescently-labelled boron-dipyrromethene fluorescent GDP (BODIPY-FL-GDP). The increase in fluorescence intensity of the BODIPY-FL group is measured at 30 s intervals.
A concentration-dependent exchange study then was carried out to obtain the concentration of compound required for 50% inhibition of Rgl2-mediated exchange, as illustrated in FIG. 1D. This was done by incubating RalB with varying concentrations of Compound 1 for 24 hours at a temperature of 4° C., prior to the initiation of nucleotide exchange by the addition of Rgl2 and BODIPY-FL-GDP. The rate constant was calculated by fitting a 3-parameter exponential function for each measurement. To determine percent inhibition, the fitting was also done for control DMSO samples and samples without Rgl2.
as §1, §2, §3, §4
Percent Inhibition and compound concentration are experimental values.

[3] = Compound stability assay in buffer; type: physicochemical
Protocol: Compound Stability Assay. 200 μM Compound 1 was incubated in a buffer containing 20 mM Tris pH 8.0, 100 mM NaCl, 10 mM MgCl2 at 4° C. for varying amounts time. After the incubation, the samples were centrifuged at 20,000×g for 10 min to remove precipitants prior to being injected into an Agilent EclipsePlus C18 RRHD column (Agilent, Santa Clara, Calif.) on an Agilent 1200 liquid chromatography system (Agilent, Santa Clara, Calif.), using a linear gradient from 100% Buffer A (H2O with 0.1% Formic Acid) to 70% Buffer B (acetonitrile with 0.1% Formic Acid), and the masses were detected on an Agilent 6520 Accurate Mass Q-TOF.

[4] = biological target: T3, RalA (Homo sapiens, UniProt P11233); assay: Rgl2-mediated guanine nucleotide exchange assay, RalA; type: biochemical; conditions: concentration not given
T3 construct: made in house; host or cells: E. coli BL21(DE3)
T3 sequence (P11233 1-178): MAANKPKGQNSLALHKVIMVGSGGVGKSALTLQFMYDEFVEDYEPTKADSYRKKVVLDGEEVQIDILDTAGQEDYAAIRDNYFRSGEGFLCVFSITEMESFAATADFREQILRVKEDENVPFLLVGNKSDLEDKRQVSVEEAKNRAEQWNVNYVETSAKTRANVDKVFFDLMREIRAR
Protocol: To further probe the contribution of individual amino acids within the binding site of Compound 1, the effect of the compound on the rate of nucleotide exchange was tested against two RalB mutants, Ser85Ala and Thr69Ala.
as §1, §2, §3
The rate constant of the exchange was calculated by fitting experimental values for Fluorescence Intensity and corresponding Time. […]

[5] = system: Pa03C pancreatic cancer cell; assay: Pa03C pancreatic cancer cell growth in 3-D co-culture with fibroblasts; type: cell-based; conditions: relative to media or DMSO
[6] = IC50 at 24 h (μM) RalB WT, 24 h incubation at 4° C.

Structure (SMILES)	IC50 [2, 6] [µM]	IC50 [1] [µM]	other results
COc1cncc(NS(=O)(=O)c2ccc(S(=O)(=O)F)cc2)c1 [Compound 1]	49.5 ± 2.3		IC50 ([1]; read-out: IC50 at 24 h (μM) RalB Tyr82Phe, 24 h incubation at 4° C., NI = No Inhibition): > 100 µM; IC50 ([2]; IC50 at 6 h, Rgl2-mediated exchange of RalB, 6 h incubation at 4° C.): 153 ± 29.9 µM
COc1ncccc1NS(=O)(=O)c1ccc(S(=O)(=O)F)cc1 [Compound 2]	23.1 ± 6.8		IC50 at 24 h (μM) RalB Tyr82Phe ([1]; 24 h incubation at 4° C., NI = No Inhibition): no inhibition; improvement in IC50 at 24 h compared to Compound 1 [2]: 2 fold
O=S(=O)(F)c1ccc(S(=O)(=O)Nc2cccnc2O)cc1 [Compound 3]	17 ± 7.7	79.3 ± 19	
O=S(=O)(F)c1ccc(S(=O)(=O)Nc2ncccc2Cl)cc1 [Compound 4]	41.7 ± 8.5	215 ± 84.5	
O=S(=O)(F)c1ccc(S(=O)(=O)Nc2cccc(Cl)n2)cc1 [Compound 5]	24.4 ± 4.9		improvement in IC50 at 24 h compared to Compound 1 [2]: 2 fold
O=S(=O)(F)c1ccc(S(=O)(=O)Nc2cccc(F)n2)cc1 [Compound 6]	51.5 ± 5.2		
O=S(=O)(F)c1ccc(S(=O)(=O)Nc2cncc(Cl)n2)cc1 [Compound 7]	49.4 ± 3.5		
COc1ccc(NS(=O)(=O)c2ccc(S(=O)(=O)F)cc2)cc1 [Compound 9]	60.3 ± 3	100 ± 11.1	
CS(=O)(=O)c1ccc(NS(=O)(=O)c2ccc(S(=O)(=O)F)cc2)cn1 [Compound 10]	147 ± 42	238 ± 55.4	
COc1cccc(NS(=O)(=O)c2ccc(S(=O)(=O)F)cc2)c1 [Compound 11]	26 ± 4.6	164 ± 42.3	
COc1cc(NS(=O)(=O)c2ccc(S(=O)(=O)F)cc2)ccn1 [Compound 12]	146 ± 14.2		
CCc1ccc(NS(=O)(=O)c2ccc(S(=O)(=O)F)cc2)cn1 [Compound 13]	164 ± 26		
CCc1cncc(NS(=O)(=O)c2ccc(S(=O)(=O)F)cc2)c1 [Compound 14]	91.4 ± 2.9	167 ± 8.7	
CCOc1cncc(NS(=O)(=O)c2ccc(S(=O)(=O)F)cc2)c1 [Compound 15]	85.5 ± 7.9	235 ± 167	
CC(C)Oc1cncc(NS(=O)(=O)c2ccc(S(=O)(=O)F)cc2)c1 [Compound 16]	79.5 ± 2.3	333 ± 31	
COc1cc(Cl)nc(NS(=O)(=O)c2ccc(S(=O)(=O)F)cc2)c1 [Compound 21]	24 ± 1	138 ± 34.2	
COc1cccc(NS(=O)(=O)c2ccc(S(=O)(=O)F)cc2)n1 [Compound 22]	64 ± 4.1		
COc1ccc(Cl)c(NS(=O)(=O)c2ccc(S(=O)(=O)F)cc2)n1 [Compound 23]	127 ± 11.7		
COc1ncccc1NS(=O)(=O)c1ccc(S(=O)(=O)F)c2c1CCCC2 [SOF-371]			inhibition of Y82F ([1]; 24 h incubation at 4° C.): inhibits Y82F; stability relative to Compound 1 [3]: higher stability than Compound 1; inhibition of RalB exchange ([2]; 24 h incubation at 4° C.): inhibits RalA and Ral B exchange; inhibition of RalA exchange [4]: inhibits RalA and Ral B exchange
COc1cc(F)cc(NS(=O)(=O)c2ccc(S(=O)(=O)F)c3c2OCCO3)c1 [SOF-531]			inhibition of Pa03C pancreatic cancer cell growth [5]: concentration-dependent inhibition
